Measured values as given in patent US20240109890A1, “BRIDGED HETEROCYCLYL-SUBSTITUTED PYRIMIDINE COMPOUNDS, PREPARATION METHOD AND MEDICAL USE THEREOF” (THE NATIONAL INSTITUTES OF PHARMACEUTICAL R&D CO., LTD., priority 2021, published 2024).

Assays:
JAK1 kinase = JAK1 kinase (Homo sapiens (Human), UniProt P23458); assay: In vitro inhibitory activity on JAK1 kinase (ADP-Glo Kinase Assay); type: biochemical; settings: JAK1 4 nM, 1 mM ATP, IRS1 substrate
Description: Experimental materials: JAK1 kinase (Invitrogen, PV4744), ATP (Promega, V915B), ADP-Glo Kinase Assay (Promega, V9101), IRS1 (Signalchem, 140-58-1000). Sample preparation: The compounds of the present invention and the control product were dissolved in DMSO solvent respectively to formulate into 10 mM mother liquor. The final reaction maximum concentration of the compound was 10 μM, 3-fold dilution, 10 concentration gradients, and duplicate wells for each concentration gradient. Experimental process: 0.1 μL of the compound to be tested was transferred into a 384-well reaction plate (PE, 6007290) via Echo and centrifuged at 1000 rpm/min for 1 min. 5 μL of JAK1 kinase (final concentration of 4 nM) was transferred into the 384-well reaction plate, which was then centrifuged at 1000 rpm/min for 1 min, and incubated at 25° C. for 15 min. 5 μL of substrate mixture (1 mM ATP, IRS1 0.05 mg/ml, kinase buffer solution) was transferred into the 384-well reaction plate, which was then centrifuged at 1000 rpm/min for 1 min, and incubated at 25° C. for 60 min. 10 μL of ADP-Glo was transferred into the 384-well reaction plate, which was then centrifuged at 1000 rpm/min for 1 min, and incubated at 25° C. for 40 min. 20 μL of test solution was transferred into the 384-well reaction plate, which was then centrifuged at 1000 rpm/min for 1 min and incubated at 25° C. for 40 min. RLU (Relative luminescence unit) signal was read by using an Envision multifunctional plate reader. The signal intensity was used to characterize the degree of the kinase activity. […] IC50 value of 0-100 nM is shown as A, IC50 value of 100-300 nM is shown as B, IC50 value of 300-1000 nM is shown as C, and IC50 value which is greater than 1000 nM is shown as D. NT means not tested.

AIA model = assay: AIA pharmacodynamic study in rats (complete Freund's adjuvant, arthritis scoring); type: in vivo, rat; settings: female Lewis rats, arthritis score; for efficacy in the AIA model versus reference PF-06700841: low dose 1 mg/kg and high dose 3 mg/kg groups
Description: Experimental materials: Complete Freund's adjuvant (Chondrex, 7027); positive control compound PF-06700841, which has a structure of
Experimental process: The in vivo efficacy of the compounds of the present invention was investigated. 8-Week-old female Lewis rats (Beijing Vital River Laboratory Animal Technology Co., Ltd.) were subcutaneously injected with 0.1 mL of complete Freund's adjuvant at a single site on the base of their tails, and grouped 13 days after modeling. 8 groups were divided: the normal group, the model group, the PF-06700841 low dose group, the PF-06700841 high dose group, the compound 1-a low dose group, the compound 1-a high dose group, the compound 1-b low dose group, and the compound 1-b high dose group (the compounds to be tested were formulated into 0.1 mg/mL and 0.3 mg/mL solutions with 20% cyclodextrin solution). 20% cyclodextrin was administered to the model group, 1 mg/kg of the test compound was administered to the low dose group, and 3 mg/kg of the test compound was administered to the high dose group. The scores were evaluated every 2 days after administration. Scoring criteria: 0 point: no redness and swelling; 1 point: mild redness and swelling of ankle joints and wrist joints; 2 points: moderate redness and swelling of ankle joints and wrist joints; 3 points: severe redness and swelling of the paw including the fingertips; 4 points: maximal inflammation of the extremities, including multiple joints. The scoring results were analyzed by Graph prism9.0 software.
FIG. 1 is a graph showing the rat AIA pharmacodynamic scoring results of the compounds of the present invention.

[1] = tested on: IFN-2α-stimulated TYK2/JAK1-mediated pathway; assay: Inhibition of STAT3 signaling pathway of human whole blood (IFN-2α induced pSTAT3, flow cytometry); type: cell-based; settings: IFN-2α stimulation, CD3/pSTAT3 staining
Description: Sample preparation: The compounds of the present invention and the control were dissolved in DMSO solvent respectively to formulate into 10 mM mother liquor. The final reaction maximum concentration of the compound was 10 μM, 3-fold dilution, 10 concentration gradients, and duplicate wells for each concentration gradient.
Experimental process: 20 μL of the compound of the present invention was added to a flow cytometer tube (BD, 352052) containing 180 μL of anticoagulant sodium heparin. 20 μL of PBS was added to the control tube. The sample was incubated at 37° C. for 30 min. 2 μL of stimulating factor was added and then incubated at 37° C. for 20 min. 1 mL of erythrocyte lysate was added, and the sample was repeatedly inverted 5 to 10 times or vortexed and then incubated at 37° C. for 10 min. The sample was centrifuged at 600 g for 6 to 8 min. The supernatant was discarded. The mixture was vortexed until the precipitate was suspended. The cells were washed with 3 mL of PBS and centrifuged at 600 g for 6 to 8 min. The supernatant was discarded. The mixture was vortexed until the precipitate was suspended. 1 mL of membrane breaking solution was added, and the system was mixed gently, incubated on ice for 30 min, and centrifuged at 600 g for 6 to 8 min. The supernatant was discarded. The mixture was vortexed until the precipitate was suspended. The cells were washed. 3 mL of PBS was added. […]

[2] = Pharmacokinetic study in rats; type: in vivo, rat; settings: for F / AUC(0-t) / Cmax / half-life: male SD rats, i.v. 1 mg/kg, p.o. 5 mg/kg; for AUC(0-t) / Cmax / half-life: rat, plasma, route of this value not stated; for pharmacokinetic properties (overall statement): rats
Description: Sample preparation: The compounds of Examples 1-a and 1-b were formulated into 0.2 mg/mL and 0.5 mg/mL solutions with 20% cyclodextrin.
Experimental method: Male SD rats (Beijing Vital River Laboratory Animal Technology Co., Ltd.) were used, the intravenous dose was 1 mg/kg (intravenously, i.v). Blood was collected from the canthus venous plexus before administration and at 0, 5 minutes, 15 minutes, 30 minutes, 1 hour, 2 hours, 4 hours, 6 hours and 8 hours after administration. The oral dose was 5 mg/kg (oral, p.o). Blood was collected from the canthus venous plexus before administration and at 15 minutes, 30 minutes, 1 hour, 2 hours, 4 hours, 6 hours and 8 hours after administration. The blood was anticoagulated with sodium heparin, centrifuged at 3500 rpm for 10 minutes at 4° C. The plasma was obtained and stored at −20° C. until testing.
50 μL of the plasma sample melted at room temperature was precisely measured and placed in a 1.5 mL EP tube, followed by adding 400 μL of verapamil internal standard working solution (China National Institute for Drug Control). The EP tube was vortexed vigorously for 1 minute, and centrifuged at 16000 rpm for 10 minutes. The supernatant was collected, filtered with a 0.22 μm organic membrane (AS081320-T, Agela Technologies), and added to an injection vial. The plasma concentration was obtained by LC/MS (Waters UPLC I Class/ TQ-S micro). The main pharmacokinetic parameters of compounds 1-a and 1-b in rats were obtained by DAS3.3.0 software.

Sequence of JAK1 kinase (P23458 whole entry): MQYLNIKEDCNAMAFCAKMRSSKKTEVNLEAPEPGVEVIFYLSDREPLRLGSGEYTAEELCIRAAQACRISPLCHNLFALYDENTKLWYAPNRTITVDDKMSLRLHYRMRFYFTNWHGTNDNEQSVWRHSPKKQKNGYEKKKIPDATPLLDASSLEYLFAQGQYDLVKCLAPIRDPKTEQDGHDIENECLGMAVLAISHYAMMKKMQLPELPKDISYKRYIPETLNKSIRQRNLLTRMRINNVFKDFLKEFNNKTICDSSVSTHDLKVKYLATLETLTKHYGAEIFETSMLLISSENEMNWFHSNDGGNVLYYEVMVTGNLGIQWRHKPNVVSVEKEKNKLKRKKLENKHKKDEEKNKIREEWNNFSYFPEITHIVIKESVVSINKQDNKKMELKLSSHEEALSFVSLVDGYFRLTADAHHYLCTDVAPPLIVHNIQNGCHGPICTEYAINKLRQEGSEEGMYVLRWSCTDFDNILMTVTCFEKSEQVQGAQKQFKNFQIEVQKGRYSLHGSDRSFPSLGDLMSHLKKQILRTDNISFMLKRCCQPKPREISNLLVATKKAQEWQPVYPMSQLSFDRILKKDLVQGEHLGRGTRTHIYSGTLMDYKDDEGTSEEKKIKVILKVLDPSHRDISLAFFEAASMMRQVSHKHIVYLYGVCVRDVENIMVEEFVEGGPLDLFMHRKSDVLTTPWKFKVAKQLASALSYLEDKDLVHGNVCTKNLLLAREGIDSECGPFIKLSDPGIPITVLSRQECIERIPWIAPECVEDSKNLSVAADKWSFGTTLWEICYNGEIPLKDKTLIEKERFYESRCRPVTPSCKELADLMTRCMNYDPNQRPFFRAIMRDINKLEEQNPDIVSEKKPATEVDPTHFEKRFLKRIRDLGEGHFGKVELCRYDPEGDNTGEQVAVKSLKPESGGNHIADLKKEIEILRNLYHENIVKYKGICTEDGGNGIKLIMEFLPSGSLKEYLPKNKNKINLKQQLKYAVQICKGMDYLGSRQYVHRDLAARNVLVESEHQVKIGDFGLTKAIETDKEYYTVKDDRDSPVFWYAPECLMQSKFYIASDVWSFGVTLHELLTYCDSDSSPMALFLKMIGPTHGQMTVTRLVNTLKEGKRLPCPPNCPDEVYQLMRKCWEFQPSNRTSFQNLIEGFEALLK

Which IC50 (JAK1 kinase) does the source give for `Cn1cc(Nc2nccc(C3=CC4CCC(C3)N4C(=O)[C@@H]3C[C@H]3F)n2)cn1` (stereo partly drawn) [Compound 1, ((1S,2R)-2-fluorocyclopropyl)(3-(2-((1-methyl-1H-pyrazol-4-yl)amino)pyrimidin-4-yl)-8-azabicyclo[3.2.1]oct-2-en-8-yl)methanone] here?
Its IC50 is under 100 nM.

For `Cn1cc(Nc2nccc(C3=C[C@@H]4CC[C@H](C3)N4C(=O)[C@@H]3C[C@H]3F)n2)cn1` [Compound 1-a, ((1S,2R)-2-fluorocyclopropyl)((1S,5R)-3-(2-((1-methyl-1H-pyrazol-4-yl)amino)pyrimidin-4-yl)-8-azabicyclo[3.2.1]oct-2en-8-yl)methanone], which “efficacy in the AIA model versus isomer 1-b” value (AIA model; 1 mg/kg and 3 mg/kg) is on record?
Its value is “significantly better than that of isomer 1-b”.

And the “efficacy in the AIA model versus reference PF-06700841” value (AIA model)?
Its value is “significantly better than that of the reference PF-06700841”.

What about the IC50 (JAK1 kinase) of the same molecule?
Its IC50 is under 100 nM.

And the IC50 [1]?
The IC50 was under 100 nM.

What about the F [2] of the same molecule?
Its F is “A (F>50% is shown as A)”.

What about the AUC(0-t) [2] of the same molecule?
Its AUC(0-t) is over 1000 ng·h/mL.

And the Cmax [2]?
The Cmax was over 500 ng/mL.

And the half-life [2]?
The half-life was over 1 h.

And the “pharmacokinetic properties (overall statement)” value [2]?
The value was “good pharmacokinetic properties”.

What does the source list for `Cn1cc(Nc2nccc(C3=C[C@H]4CC[C@@H](C3)N4C(=O)[C@@H]3C[C@H]3F)n2)cn1` [Compound 1-b, ((1S,2R)-2-fluorocyclopropyl)((1R,5S)-3-(2-((1-methyl-1H-pyrazol-4-yl)amino)pyrimidin-4-yl)-8-azabicyclo[3.2.1]oct-2-en-8-yl)methanone]?
efficacy in the AIA model versus reference PF-06700841 (AIA model): significantly better than that of the reference PF-06700841; IC50 (JAK1 kinase): < 100 nM; IC50 [1]: < 100 nM; F [2]: A (F>50% is shown as A); AUC(0-t) [2]: 500 to 1000 ng·h/mL; Cmax [2]: 300 to 500 ng/mL; half-life [2]: > 1 h; pharmacokinetic properties (overall statement) [2]: good pharmacokinetic properties

With `Cn1cc(Nc2nccc(C3=CC4CCC(C3)N4C(=O)[C@H]3C[C@@H]3F)n2)cn1` (stereo partly drawn) [Compound 2, ((1R,2S)-2-fluorocyclopropyl)(3-(2-((1-methyl-1H-pyrazol-4-yl)amino)pyrimidin-4-yl)-8-azabicyclo[3.2.1]oct-2-en-8-yl)methanone] as the molecule, how does the IC50 (JAK1 kinase) read?
The IC50 was 300 to 1000 nM.

Which IC50 (JAK1 kinase) does the source give for `Cn1cc(Nc2nccc(C3=C[C@@H]4CC[C@H](C3)N4C(=O)[C@H]3C[C@@H]3F)n2)cn1` [Compound 2-a, ((1R,2S)-2-fluorocyclopropyl)((1S,5R)-3-(2-((1-methyl-1H-pyrazol-4-yl)amino)pyrimidin-4-yl)-8-azabicyclo[3.2.1]oct-2-en-8-yl)methanone] here?
Its IC50 is 300 to 1000 nM.

For `Cn1cc(Nc2nccc(C3=C[C@H]4CC[C@@H](C3)N4C(=O)[C@H]3C[C@@H]3F)n2)cn1` [Compound 2-b, ((1R,2S)-2-fluorocyclopropyl)((1R,5S)-3-(2-((1-methyl-1H-pyrazol-4-yl)amino)pyrimidin-4-yl)-8-azabicyclo[3.2.1]oct-2-en-8-yl)methanone], which IC50 (JAK1 kinase) is on record?
The IC50 was 100 to 300 nM.
